IC50 data for 23 compounds are collected here from patent US11795177B2, “Substituted quinoline analogs as aldehyde dehydrogenase 1A1 (ALDH1A1) inhibitors” (THE UNITED STATES OF AMERICA, AS REPRESENTED BY THE …, priority 2017, dated 2023).

One test deals with MIA PaCa-2 cells. The test is described as follows: MIA PaCa2 cell-based assay (1,536-well high-content imaging ALDEFLUOR assay). More on the design: species or system human. The note with it: Homo sapiens, 0.5 h, ALDEFLUOR BAAA substrate 500 nM, 30 minutes. In a few lines: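 MIA PaCa-2 cells (1,000/well), plated overnight, given BAAA substrate (500 nM) plus Hoechst 33342 (0.5 nM), then compound (16-point, 1.4 nM–47.8 μM final; 0.5% DMSO). After 30 min at 37° C, ALDH activity imaged by high-content microscopy as BAA-retaining (FITC) cells versus Hoechst-stained nuclei.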

In a further test the target is T1, ALDH1A1 enzyme (Homo sapiens, UniProt P00352).
T1 sequence (P00352 1-501): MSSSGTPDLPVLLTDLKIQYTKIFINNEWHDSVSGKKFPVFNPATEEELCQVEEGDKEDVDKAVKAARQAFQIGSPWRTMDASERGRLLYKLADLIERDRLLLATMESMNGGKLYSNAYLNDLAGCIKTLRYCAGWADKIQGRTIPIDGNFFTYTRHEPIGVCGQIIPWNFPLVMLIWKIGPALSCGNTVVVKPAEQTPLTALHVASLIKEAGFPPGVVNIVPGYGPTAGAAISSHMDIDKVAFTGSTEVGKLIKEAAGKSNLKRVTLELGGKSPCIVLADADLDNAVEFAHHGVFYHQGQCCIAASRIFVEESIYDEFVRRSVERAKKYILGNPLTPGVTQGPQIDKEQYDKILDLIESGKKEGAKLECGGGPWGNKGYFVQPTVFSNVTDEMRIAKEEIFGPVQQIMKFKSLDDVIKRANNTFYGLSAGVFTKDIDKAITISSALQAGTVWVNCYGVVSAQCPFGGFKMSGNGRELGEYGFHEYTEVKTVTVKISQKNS
Briefly: ALDH1A1 enzymatic assay (in vitro). The class given is biochemical. Conditions: ALDH1A1 enzyme 20 nM, NAD+ 1 mM, propionaldehyde 80 μM; read-out: ALDH1A1 IC50. On the procedure: Example 358. ALDH1A1 Enzymatic Assay (In Vitro Assay)
3 μL of ALDH1A1 enzyme (final concentration 20 nM) or assay buffer (100 mM HEPES pH 7.5 with 0.01% Tween 20) were dispensed into a 1,536-well solid-bottom black plate (Greiner Bio One, Monroe, N.C.) followed by pin-tool transfer (23 nL) of candidate inhibitors (final concentration range 968 pM to 57.2 μM) and control (Bay 11-7085, final concentration range 1.31 nM to 2.86 μM). Samples were incubated (RT, protected from light) for 15 minutes followed by a 1 μL substrate addition of NAD^+ and Propionaldehyde (final concentrations of 1 mM and 80 μM, respectively). Plates were centrifuged at 1,000 rpm for 15 seconds, then read in kinetic mode on a ViewLux High-throughput CCD imager (Perkin-Elmer) equipped with standard UV fluorescence optics (340 nm excitation, 450 nm emission) for 10 minutes. The change in fluorescence intensity over the 10-minute reaction period was normalized against no-inhibitor and no-enzyme controls and the resulting percent inhibition data were fitted for biological activity.

SMILES strings stand for the structures. Counter-ions that a name gives are not always drawn.

Consider `COc1ccc2ncc(C(=O)N3CCN(C(=O)C4CC4)CC3)c(N3CCC(OC)CC3)c2c1` [Example 3, (4-(cyclopropanecarbonyl)piperazin-1-yl)(6-methoxy-4-(4-methoxypiperidin-1-yl)quinolin-3-yl)methanone, TFA], for which the IC50 (commonly the concentration at which inhibition is half-maximal) was > 10 µM with MIA PaCa-2 cells and < 0.5 µM at ALDH1A1 enzyme.
As for `COc1ccc2ncc(C(=O)N3CCC(OC)CC3)c(N3CCC(OC)CC3)c2c1` [Example 4, (6-methoxy-4-(4-methoxypiperidin-1-yl)quinolin-3-yl)(4-methoxypiperidin-1-yl)methanone, TFA], the IC50 is 1 to 10 µM with MIA PaCa-2 cells and < 0.5 µM at ALDH1A1 enzyme.
Turning to `COc1ccc2ncc(C(=O)N3CCN(C(=O)C(C)C)CC3)c(N3CCC4(CC3)OCCO4)c2c1` [Example 5, 1-(4-(6-methoxy-4-(1,4-dioxa-8-azaspiro[4.5]decan-8-yl)quinoline-3-carbonyl)piperazin-1-yl)-2-methylpropan-1-one, TFA], the results for the IC50 in the test with MIA PaCa-2 cells and on ALDH1A1 enzyme were > 10 µM and < 0.5 µM, respectively.
The matching figures for `CCC(=O)N1CCN(C(=O)c2cnc3ccc(OC)cc3c2N2CCC3(CC2)OCCO3)CC1` [Example 6, 1-(4-(6-methoxy-4-(1,4-dioxa-8-azaspiro[4.5]decan-8-yl)quinoline-3-carbonyl)piperazin-1-yl)propan-1-one, TFA]: 1 to 10 µM and < 0.5 µM.
As for `COc1ccc2ncc(C(=O)N3CCN(C(=O)c4cnn(C)c4)CC3)c(N3CCC4(CC3)OCCO4)c2c1` [Example 7, (6-methoxy-4-(1,4-dioxa-8-azaspiro[4.5]decan-8-yl)quinolin-3-yl)(4-(1-methyl-1H-pyrazole-4-carbonyl)piperazin-1-yl)methanone, TFA], the IC50 in the test with MIA PaCa-2 cells was > 10 µM; at ALDH1A1 enzyme, < 0.5 µM.
As to `COc1ccc2ncc(C(=O)N3CCN(C(C)C)CC3)c(N3CCC4(CC3)OCCO4)c2c1` [Example 8, (4-isopropylpiperazin-1-yl)(6-methoxy-4-(1,4-dioxa-8-azaspiro[4.5]decan-8-yl)quinolin-3-yl)methanone, TFA], the IC50 with MIA PaCa-2 cells is > 10 µM; at ALDH1A1 enzyme it was 1 to 10 µM.
For `COc1ccc2ncc(C(=O)N3CCN(C4CCCC4)CC3)c(N3CCC4(CC3)OCCO4)c2c1` [Example 9, (4-cyclopentylpiperazin-1-yl)(6-methoxy-4-(1,4-dioxa-8-azaspiro[4.5]decan-8-yl)quinolin-3-yl)methanone, TFA] the same measures were > 10 µM and 1 to 10 µM.
For `COc1ccc2ncc(C(=O)N3CCC(c4ccccc4)CC3)c(N3CCC4(CC3)OCCO4)c2c1` [Example 10, (6-methoxy-4-(1,4-dioxa-8-azaspiro[4.5]decan-8-yl)quinolin-3-yl)(4-phenylpiperidin-1-yl)methanone, TFA] the same measures were > 10 µM and < 0.5 µM.
`COc1ccc2ncc(C(=O)N3CCC(N4CCCC4)CC3)c(N3CCC4(CC3)OCCO4)c2c1` [Example 11, (6-methoxy-4-(1,4-dioxa-8-azaspiro[4.5]decan-8-yl)quinolin-3-yl)(4-(pyrrolidin-1-yl)piperidin-1-yl)methanone, TFA]: the IC50 in the test on MIA PaCa-2 cells and on ALDH1A1 enzyme was > 10 µM throughout.
Take `COc1ccc2ncc(C(=O)N3CCC(C(F)(F)F)CC3)c(N3CCC4(CC3)OCCO4)c2c1` [Example 12, (6-methoxy-4-(1,4-dioxa-8-azaspiro[4.5]decan-8-yl)quinolin-3-yl)(4-(trifluoromethyl)piperidin-1-yl)methanone, TFA]: the IC50 in the test with MIA PaCa-2 cells was 1 to 10 µM; at ALDH1A1 enzyme, < 0.5 µM.
For `COc1ccc2ncc(C(=O)N3CCN(S(C)(=O)=O)CC3)c(N3CCC4(CC3)OCCO4)c2c1` [Example 13, (6-methoxy-4-(1,4-dioxa-8-azaspiro[4.5]decan-8-yl)quinolin-3-yl)(4-(methylsulfonyl)piperazin-1-yl)methanone, TFA] the same measures were 1 to 10 µM and < 0.5 µM.
The matching figures for `COc1ccc2ncc(C(=O)N3CCN(c4cccnc4)CC3)c(N3CCC4(CC3)OCCO4)c2c1` [Example 14, (6-methoxy-4-(1,4-dioxa-8-azaspiro[4.5]decan-8-yl)quinolin-3-yl)(4-(pyridin-3-yl)piperazin-1-yl)methanone, TFA]: > 10 µM and < 0.5 µM.
The matching figures for `COc1ccc2ncc(C(=O)N3CCN(c4ccncc4)CC3)c(N3CCC4(CC3)OCCO4)c2c1` [Example 15, (6-methoxy-4-(1,4-dioxa-8-azaspiro[4.5]decan-8-yl)quinolin-3-yl)(4-(pyridin-4-yl)piperazin-1-yl)methanone, TFA]: > 10 µM and 1 to 10 µM.
As for `COc1ccc2ncc(C(=O)N3CCN(C(=O)C4CC4)CC3)c(N3CCC4(CCCC4)CC3)c2c1` [Example 17, (4-(cyclopropanecarbonyl)piperazin-1-yl)(6-methoxy-4-(8-azaspiro[4.5]decan-8-yl)quinolin-3-yl)methanone, TFA], the figures for the IC50 in the test with MIA PaCa-2 cells and at ALDH1A1 enzyme were 1 to 10 µM and < 0.5 µM, respectively.
For `COc1ccc2ncc(C(=O)N3CCN(C(=O)C4CC4)CC3)c(N3CCC(C)(C)CC3)c2c1` [Example 18, (4-(cyclopropanecarbonyl)piperazin-1-yl)(4-(4,4-dimethylpiperidin-1-yl)-6-methoxyquinolin-3-yl)methanone, TFA] the same measures were 1 to 10 µM and < 0.5 µM.
For `COc1ccc2ncc(C(=O)N3CCN(C(=O)C4CC4)CC3)c(N3CCN(S(C)(=O)=O)CC3)c2c1` [Example 19, (4-(cyclopropanecarbonyl)piperazin-1-yl)(6-methoxy-4-(4-(methylsulfonyl)piperazin-1-yl)quinolin-3-yl)methanone, TFA] the same measures were 1 to 10 µM and 1 to 10 µM.
For `COc1ccc2ncc(C(=O)N3CCN(C(=O)C4CC4)CC3)c(N3CCN(C(C)=O)CC3)c2c1` [Example 23, 1-(4-(3-(4-(cyclopropanecarbonyl)piperazine-1-carbonyl)-6-methoxyquinolin-4-yl)piperazin-1-yl)ethanone] the same measures were > 10 µM and > 10 µM.
`COc1ccc2ncc(C(=O)N3CCN(C(=O)C4CC4)CC3)c(N3CCC4(CCCO4)CC3)c2c1` [Example 24, (4-(cyclopropanecarbonyl)piperazin-1-yl)(6-methoxy-4-(1-oxa-8-azaspiro[4.5]decan-8-yl)quinolin-3-yl)methanone]: the IC50 is > 10 µM in the test with MIA PaCa-2 cells and < 0.5 µM at ALDH1A1 enzyme.
The matching figures for `COc1ccc2ncc(C(=O)N3CCN(C(=O)C4CC4)CC3)c(N3CCC(C#N)CC3)c2c1` [Example 25, 1-(3-(4-(cyclopropanecarbonyl)piperazine-1-carbonyl)-6-methoxyquinolin-4-yl)piperidine-4-carbonitrile]: > 10 µM and > 10 µM.
Turning to `COc1ccc2ncc(C(=O)N3CCN(C(=O)C4CC4)CC3)c(N3CCC(C)(OC)CC3)c2c1` [Example 26, (4-(cyclopropanecarbonyl)piperazin-1-yl)(6-methoxy-4-(4-methoxy-4-methylpiperidin-1-yl)quinolin-3-yl)methanone], the IC50 is > 10 µM in the test on MIA PaCa-2 cells and < 0.5 µM at ALDH1A1 enzyme.
The matching figures for `COc1ccc2ncc(C(=O)N3CCN(C(=O)C4CC4)CC3)c(N3CCC(C)(C#N)CC3)c2c1` [Example 27, 1-(3-(4-(cyclopropanecarbonyl)piperazine-1-carbonyl)-6-methoxyquinolin-4-yl)-4-methylpiperidine-4-carbonitrile]: 1 to 10 µM and < 0.5 µM.
For `COc1ccc2ncc(C(=O)N3CCN(C(=O)C4CC4)CC3)c(N3CCC(C(F)(F)F)CC3)c2c1` [Example 28, (4-(cyclopropanecarbonyl)piperazin-1-yl)(6-methoxy-4-(4-(trifluoromethyl)piperidin-1-yl)quinolin-3-yl)methanone] the same measures were > 10 µM and 1 to 10 µM.
For `COc1ccc2ncc(C(=O)N3CCN(C(=O)C4CC4)CC3)c(N3CCS(=O)(=O)CC3)c2c1` [Example 29, (4-(cyclopropanecarbonyl)piperazin-1-yl)(4-(1,1-dioxidothiomorpholino)-6-methoxyquinolin-3-yl)methanone] the same measures were > 10 µM and > 10 µM.
